Entries after “also recorded” stand apart in the source; their conditions may differ.
How the values were obtained:
[1] = system: FXR target genes SHP, MRP-2, BSEP and PLTP; assay: Northern blot of FXR target genes in HEPG2-FXR cells; format: cell-based; conditions: for induction of FXR target genes, in words: SHP, MRP-2, BSEP, PLTP; for concentration for maximal activation of FXR target genes: overnight treatment
Method: HepG2 or HT29-derived cell lines were typically cultured in medium containing superstripped FBS for 24 hr before the addition of a ligand or DMSO (vehicle) for an additional 24-48 hr. Total RNA was isolated using TRIzol reagent and was resolved (10 μg/lane) on a 1% agarose, 2.2 M formaldehyde gel, transferred to a nylon membrane (Hybond N^+; Amersham Biosciences, Inc.), and cross-linked to the membrane with UV light.
cDNA probes were radiolabeled with [α-^32P]dCTP using the highprime labeling kit (Amersham Biosciences, Inc.). Membranes were hybridized using the QuikHyb hybridization solution (Stratagene, La Jolla, Calif.) according to the manufacturer's protocol. Blots were normalized for variations of RNA loading by hybridization to a control probe, either, 18 S ribosomal cDNA, or the ribosomal protein 36B4. The RNA levels were quantitated using a PhosphorImager (ImageQuant software; Molecular Dynamics, Inc., Sunnyvale, Calif.) in addition to being exposed to X-ray film.
Total RNA was isolated and the expression of the FXR target genes SHP, MRP-2, BSEP and PLTP was measured by Northern blot analysis. […]

[2] = system: FXR (IBABP, PLTP and MRP-2 promoters); assay: transient transfection cell-based assay with natural promoters of FXR targets (IBABP, PLTP, MRP-2)
Description: For this study, the following gene promoters were used: intestinal bile acid binding protein (IBABP; see, for example, Grober et al. (1999). Identification of a bile acid-responsive element in the human ileal bile acid-binding protein gene. Involvement of the farnesoid X receptor/9-cis-retinoic acid receptor heterodimer. J Biol Chem. 274(42), 29749-54), phospholipid transfer protein (PLTP) (Urizar et al (2000). The farnesoid X-activated receptor mediates bile acid activation of phospholipid transfer protein gene expression. J Biol Chem. 275(50), 39313-7) and multidrug resistance related protein 2 (MRP-2) (Kast et al. (2002), supra), which are all well characterized targets of FXR. The natural promoters of both the IBABP and PLTP genes contain one copy of an inverted repeat with a one base spacing (IR-1) while MRP-2 contains an ER-8 element. […] The most robust activation (28-fold) was seen on the IBABP promoter. Less robust (2-3 fold) but specific activation was observed on the PLTP and MRP-2 promoters.

[3] = biological target: T1, mouse FXR and human RXR (Mus musculus, UniProt Q60641); assay: CV-1 transient transfection reporter gene assay, TK minimal promoter with ECRE or ER-8 FXRE; format: cell-based; conditions: CV-1 cells; for concentration at which maximal activity is achieved: ECRE and ER-8 reporters; for activation of ECRE FXRE reporter: six copies of ECRE, TK minimal promoter; for activation of ER-8 FXRE reporter: two copies of ER-8, TK minimal promoter
T1 construct: expressed in transfected cells; host or cells: CV-1 cells
T1 sequence (Q60641 1-488): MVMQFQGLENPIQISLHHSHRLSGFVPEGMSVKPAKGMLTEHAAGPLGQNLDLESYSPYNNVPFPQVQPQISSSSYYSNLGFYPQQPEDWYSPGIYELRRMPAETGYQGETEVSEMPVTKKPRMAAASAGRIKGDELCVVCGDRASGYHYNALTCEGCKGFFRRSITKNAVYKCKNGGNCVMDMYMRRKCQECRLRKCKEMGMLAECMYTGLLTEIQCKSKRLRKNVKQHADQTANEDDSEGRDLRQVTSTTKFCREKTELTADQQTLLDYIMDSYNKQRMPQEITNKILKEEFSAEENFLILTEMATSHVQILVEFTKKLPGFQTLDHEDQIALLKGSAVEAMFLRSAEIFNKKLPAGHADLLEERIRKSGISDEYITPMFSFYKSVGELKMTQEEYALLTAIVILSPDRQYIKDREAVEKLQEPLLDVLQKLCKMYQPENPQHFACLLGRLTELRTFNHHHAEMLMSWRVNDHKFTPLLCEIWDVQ
T1 sequence (P19793 1-462 partner): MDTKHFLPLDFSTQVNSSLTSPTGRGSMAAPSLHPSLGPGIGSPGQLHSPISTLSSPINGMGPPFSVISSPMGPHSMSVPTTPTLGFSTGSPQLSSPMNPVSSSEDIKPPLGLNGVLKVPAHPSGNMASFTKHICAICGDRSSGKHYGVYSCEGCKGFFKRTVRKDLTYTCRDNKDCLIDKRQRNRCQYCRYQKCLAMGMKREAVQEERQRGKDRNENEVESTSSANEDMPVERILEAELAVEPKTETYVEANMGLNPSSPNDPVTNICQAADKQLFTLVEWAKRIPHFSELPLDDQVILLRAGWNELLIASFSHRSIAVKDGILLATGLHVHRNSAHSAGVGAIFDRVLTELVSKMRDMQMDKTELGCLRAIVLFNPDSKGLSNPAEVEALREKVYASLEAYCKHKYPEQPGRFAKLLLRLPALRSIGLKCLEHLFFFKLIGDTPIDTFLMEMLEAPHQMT
Method: The ability of these compounds to activate the receptor in a number of different cell-based reporter gene assays was then determined. […] CV-1 cells were transiently transfected with an expression plasmid for mouse FXR and human RXR with a thymidine kinase (TK) minimal promoter reporter vector containing either no copies or six copies of the ecdysone response element (ECRE), a well-characterized FXR response element (FXRE). In addition, two copies of the recently identified FXRE everted repeat separated by 8 nucleotides (ER-8) was also studied (see, for example, Laffitte et al. (2000). Identification of the DNA binding specificity and potential target genes for the farnesoid X-activated receptor. J Biol Chem. 275(14), 10638-47; Kast et al. (2002). Regulation of multidrug resistance-associated protein 2 (ABCC2) by the nuclear receptors pregnane X receptor, farnesoid X-activated receptor, and constitutive androstane receptor. J Biol Chem. 277(4), 2908-15).

[4] = biological target: T2, FXR ligand-binding domain (Homo sapiens, UniProt Q96RI1); assay: FRET-based coactivator binding assay (SRC-1 peptide recruitment); format: biochemical
T2 sequence (Q96RI1 262-486 limits assumed): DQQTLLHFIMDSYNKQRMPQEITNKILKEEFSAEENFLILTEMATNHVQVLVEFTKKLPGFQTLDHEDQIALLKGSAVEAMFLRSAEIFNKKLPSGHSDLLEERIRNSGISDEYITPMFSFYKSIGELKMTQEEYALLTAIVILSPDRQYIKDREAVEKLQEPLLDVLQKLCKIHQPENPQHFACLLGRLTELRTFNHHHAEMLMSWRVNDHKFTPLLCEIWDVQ
Description: To determine if the compounds identified as ligands could promote the association of FXR with co-activators in vitro, a fluorescence resonance energy transfer (FRET)-based coactivator binding assay was employed (see, for example, Makishima et al. (1999), supra, Urizar et al. (2002). A natural product that lowers cholesterol as an antagonist ligand for FXR. Science. 296(5573), 1703-6). This assay relies on an agonist-induced interaction between the nuclear receptor and its coactivator bringing two fluorogenic partners together resulting in the nuclear receptor ligand-dependent FRET.

| concentration at which maximal activity is achieved [3] [µM] | activation of ECRE FXRE reporter [3] [fold] | activation of ER-8 FXRE reporter [3] [fold] | EC50 [4] [nM] | Compound | induction of FXR target genes, in words ([1]; listed as fexaramine) | concentration for maximal activation of FXR target genes [1] [µM] | concentration of maximum efficacy [2] [µM] | induction of FXR target genes, in words [1] |
| --- | --- | --- | --- | --- | --- | --- | --- | --- |
| 1 | 100 | 4 | 255 | COC(=O)/C=C/c1cccc(N(Cc2ccc(-c3ccc(N(C)C)cc3)cc2)C(=O)C2CCCCC2)c1 [Compound 259] | most effective inducer of target genes; also recorded: matched GW4064 induced activation of the BSEP and MRP-2 genes | 10 | 1 | – |
| 1 | 100 | 4 | 222 | COC(=O)/C=C/c1cccc(N(Cc2ccc(-c3ccc4c(c3)OCO4)cc2)C(=O)C2CCCCC2)c1 [Compound 244] | – | 10 | 1 | strong induction |
| 1 | 100 | 4 | ~255 | COC(=O)C=Cc1cccc(N(Cc2ccc(C=Cc3ccccc3)cc2)C(=O)C2CCCCC2)c1 [Compound 121] | – | 10 | 1 | strong induction |

Reference: patent US7671085B2, “Non-steroidal farnesoid X receptor modulators and methods for the use thereof” (The Salk Institute for Biological Studies, priority 2002, dated 2010)
